MIC data for 16 compounds are collected here from US7153851B2, “10-(3-cyclopropylaminomethyl-1-pyrrolidinyl)pyridobenzoxazinecarboxylic acid derivative effective against resistant bacterium” (Kyorin Pharmaceutical Co., Ltd., priority 2002, dated 2006).

Values after ≈ are worked out from the molar mass of the structure shown.

Holding throughout (experiment): In vitro antibacterial activity (MIC), agar dilution method according to NCCLS
What all share (type): cell-based

Assay [1] deals with S. aureus Smith. The settings on record: Muller-Hinton agar medium. On the procedure:
(§1) The in vitro antibacterial activity (as measured by the minimum inhibitory concentration (MIC)) was determined for each of the compounds of the present invention by the agar dilution method according to NCCLS (National Committee for Clinical Laboratory Standard (1997), Methods for Dilution Antibacterial Susceptibility Tests for Bacteria that grow Aerobically-Forth Edition: Approved Standard m7-A4. NCCLS, Villanova, Pa.), which involved the use of Muller-Hinton agar medium.

In assay [2] the test system is S. aureus MS16401 (quinolone-resistant S. aureus). The following applies: Muller-Hinton agar medium. As for the experimental part: as §1
In assay [3] the test system is S. aureus MR5867 (methicillin-resistant S. aureus). The settings on record: Muller-Hinton agar medium. As for the experimental part: as §1
Assay [4] relates to E. faecalis IID682. Further details: unit not given here. The following applies: Muller-Hinton agar medium containing 5% defibrinated equine blood.
Assay [5] has as its system S. pneumoniae Type III. The following applies: Muller-Hinton agar medium containing 5% defibrinated equine blood.

Consider `C=C1COc2c(N3CC[C@@H](CNC4CC4)C3)c(F)cc3c(=O)c(C(=O)O)cn1c23` [Example 7, 10-[(3S)-3-cyclopropylaminomethyl-1-pyrrolidinyl]-9-fluoro-2,3-dihydro-3-methylene-7-oxo-7H-pyrido[1,2,3-d,e][1,4]benzoxazine-6-carboxylic acid], for which the MIC entry in assay [1] is “≦0.008 mg/mL”; in assay [2] it was 63 µg/mL (≈ 158 µM); in assay [3], “≦0.008 mg/mL”; in assay [4], 0.125; in assay [5], 0.016.

`C[C@@H]1CN(c2c(F)cc3c(=O)c(C(=O)O)cn4c3c2OC[C@@H]4CF)C[C@H]1CNC1CC1` (relative stereo) [Example 16, (3R)-10-(trans-3-cyclopropylaminomethyl-4-methyl-1-pyrrolidinyl)-9-fluoro-3-fluoromethyl-2,3-dihydro-7-oxo-7H-pyrido[1,2,3-d,e][1,4]benzoxazine-6-carboxylic acid]: the MIC is 0.016 in assay [1]; 63 µg/mL (≈ 145 µM) in assay [2]; 0.016 in assay [3]; 0.063 in assay [4]; 0.032 in assay [5].

With `C[C@@H]1CN(c2c(F)cc3c(=O)c(C(=O)O)cn4c3c2OC[C@@H]4C)C[C@@H]1CNC1CC1` [Example 14, (3S)-10-[(3S,4S)-3-cyclopropylaminomethyl-4-methyl-1-pyrrolidinyl]-9-fluoro-2,3-dihydro-3-methyl-7-oxo-7H-pyrido[1,2,3-d,e][1,4]benzoxazine-6-carboxylic acid], the MIC in assay [1] was 0.008; in assay [2] it was 31 µg/mL (≈ 74.6 µM); in assay [3], 0.008; in assay [4], 0.063; in assay [5] it was “≦0.008 mg/mL”.

For `C[C@@H]1CN(c2c(F)cc3c(=O)c(C(=O)O)cn4c3c2OC[C@@H]4CF)C[C@@H]1CNC1CC1` [Example 18, (3R)-10-[(3S,4S)-3-cyclopropylaminomethyl-4-methyl-1-pyrrolidinyl]-9-fluoro-3-fluoromethyl-2,3-dihydro-7-oxo-7H-pyrido[1,2,3-d,e][1,4]benzoxazine-6-carboxylic acid], the MIC in assay [1] is 0.008; in assay [2] it was 63 µg/mL (≈ 145 µM); in assay [3] it was 0.016; in assay [4], 0.063; in assay [5] it was 0.016.

As to `CC(=O)OC[C@@H]1COc2c(N3CC[C@@H](CNC4CC4)C3)c(F)cc3c(=O)c(C(=O)O)cn1c23` [Example 5, (3S)-3-acetoxymethyl-10-[(3S)-3-cyclopropylaminomethyl-1-pyrrolidinyl]-9-fluoro-2,3-dihydro-7-oxo-7H-pyrido[1,2,3-d,e][1,4]benzoxazine-6-carboxylic acid], the MIC came to 0.25 in assay [1]; 4000 µg/mL (≈ 8710 µM) in assay [2]; 0.25 in assay [3]; 0.25 in assay [4]; 0.125 in assay [5].

In the case of `O=C(O)c1cn2c3c(c(N4CC[C@@H](CNC5CC5)C4)c(F)cc3c1=O)OC[C@@H]2CO` [Example 6, (3S)-10-[(3S)-3-cyclopropylaminomethyl-1-pyrrolidinyl]-9-fluoro-2,3-dihydro-3-hydroxymethyl-7-oxo-7H-pyrido[1,2,3-d,e][1,4]benzoxazine-6-carboxylic acid], the MIC in assay [1] came out at 0.25; in assay [2], 4000 µg/mL (≈ 9580 µM); in assay [3] it was 0.25; in assay [4], 0.25; in assay [5] it was 0.125.

Turning to `C[C@H]1CN(c2c(F)cc3c(=O)c(C(=O)O)cn4c3c2OC[C@@H]4C)C[C@H]1CNC1CC1` [Example 15, (3S)-10-[(3R,4R)-3-cyclopropylaminomethyl-4-methyl-1-pyrrolidinyl]-9-fluoro-2,3-dihydro-3-methyl-7-oxo-7H-pyrido[1,2,3-d,e][1,4]benzoxazine-6-carboxylic acid], the MIC in assay [1] was determined as 0.031; in assay [2] it was 63 µg/mL (≈ 152 µM); in assay [3] it was 0.031; in assay [4] it was 0.125; in assay [5], 0.063.

Consider `O=C(O)c1cn2c3c(c(N4CC[C@H](CNC5CC5)C4)c(F)cc3c1=O)OC[C@@H]2CF` [Example 2, (3R)-10-[(3R)-3-cyclopropylaminomethyl-1-pyrrolidinyl]-9-fluoro-3-fluoromethyl-2,3-dihydro-7-oxo-7H-pyrido[1,2,3-d,e][1,4]benzoxazine-6-carboxylic acid], for which the MIC in assay [1] was 0.031; in assay [2], 250 µg/mL (≈ 596 µM); in assay [3], 0.016; in assay [4], 0.25; in assay [5], 0.125.

`O=C(O)c1cn2c3c(c(N4CC[C@@H](CNC5CC5)C4)c(F)cc3c1=O)OC[C@@H]2CF` [Example 1, (3R)-10-[(3S)-3-cyclopropylaminomethyl-1-pyrrolidinyl]-9-fluoro-3-fluoromethyl-2,3-dihydro-7-oxo-7H-pyrido[1,2,3-d,e][1,4]benzoxazine-6-carboxylic acid]: the MIC in assay [1] came out at 0.016; in assay [2], 125 µg/mL (≈ 298 µM); in assay [3] it was 0.016; in assay [4], 0.063; in assay [5], 0.032.

Turning to `COC[C@H]1COc2c(N3CC[C@@H](CNC4CC4)C3)c(F)cc3c(=O)c(C(=O)O)cn1c23` [Example 4, (3S)-10-[(3S)-3-cyclopropylaminomethyl-1-pyrrolidinyl]-9-fluoro-2,3-dihydro-3-methoxymethyl-1-oxo-7H-pyrido[1,2,3-d,e][1,4]benzoxazine-6-carboxylic acid], the MIC in assay [1] came to 0.031; in assay [2], 500 µg/mL (≈ 1160 µM); in assay [3], 0.031; in assay [4], 0.25; in assay [5] it was 0.125.

Take `O=C(O)c1cn2c3c(c(N4C[C@H](CNC5CC5)[C@H](F)C4)c(F)cc3c1=O)OC[C@@H]2CF` [Example 20, (3R)-10-[(3S,4S)-3-cyclopropylaminomethyl-4-fluoro-1-pyrrolidinyl]-9-fluoro-3-fluoromethyl-2,3-dihydro-7-oxo-7H-pyrido[1,2,3-d.e][1,4]benzoxazine-6-carboxylic acid]: the MIC was found to be 0.008 in assay [1]; 63 µg/mL (≈ 144 µM) in assay [2]; 0.016 in assay [3]; 0.063 in assay [4]; 0.016 in assay [5].

For the compound `C[C@@H]1CN(c2c(F)cc3c(=O)c(C(=O)O)cn4c3c2OC[C@@H]4C)C[C@H]1CNC1CC1` [Example 12, (3S)-10-[(3R,4S)-3-cyclopropylaminomethyl-4-methyl-1-pyrrolidinyl]-9-fluoro-2,3-dihydro-3-methyl-7-oxo-7H-pyrido[1,2,3-d,e][1,4]benzoxazine-6-carboxylic acid], the MIC in assay [1] amounted to 0.016; in assay [2] it was 63 µg/mL (≈ 152 µM); in assay [3] it was 0.016; in assay [4], 0.25; in assay [5], 0.063.

Take `C[C@H]1CN(c2c(F)cc3c(=O)c(C(=O)O)cn4c3c2OC[C@@H]4CF)C[C@@H]1CNC1CC1` [Example 17, (3R)-10-[(3S,4R)-3-cyclopropylaminomethyl-4-methyl-1-pyrrolidinyl]-9-fluoro-3-fluoromethyl-2,3-dihydro-7-oxo-7H-pyrido[1,2,3-d,e][1,4]benzoxazine-6-carboxylic acid]: the MIC in assay [1] was 0.008; in assay [2], 63 µg/mL (≈ 145 µM); in assay [3], 0.008; in assay [4] it was 0.063; in assay [5] it was 0.016.

With `C[C@@H]1CN(c2c(F)cc3c(=O)c(C(=O)O)cn4c3c2OC[C@@H]4C)C[C@H]1CNC1CC1` (relative stereo) [Example 10, (3S)-10-(trans-3-cyclopropylaminomethyl-4-methyl-1-pyrrolidinyl)-9-fluoro-2,3-dihydro-3-methyl-7-oxo-7H-pyrido[1,2,3-d,e][1,4]benzoxazine-6-carboxylic acid], the MIC in assay [1] was determined as 0.016; in assay [2] it was 63 µg/mL (≈ 152 µM); in assay [3], 0.016; in assay [4] it was 0.125; in assay [5] it was 0.031.

In the case of `C[C@H]1COc2c(N3C[C@H](NC4CC4)[C@@H](F)C3)c(F)cc3c(=O)c(C(=O)O)cn1c23` [Example 21, (3S)-10-[(3S,4S)-3-cyclopropylamino-4-fluoro-1-pyrrolidinyl]-9-fluoro-2,3-dihydro-3-methyl-7-oxo-7H-pyrido[1,2,3-d.e][1,4]benzoxazine-6-carboxylic acid], the MIC came out at 0.016 in assay [1]; 31 µg/mL (≈ 76.5 µM) in assay [2]; 0.016 in assay [3]; 0.063 in assay [4]; 0.016 in assay [5].

Regarding `C[C@H]1CN(c2c(F)cc3c(=O)c(C(=O)O)cn4c3c2OC[C@@H]4C)C[C@@H]1CNC1CC1` [Example 11, (3S)-10-[(3S,4R)-3-cyclopropylaminomethyl-4-methyl-1-pyrrolidinyl]-9-fluoro-2,3-dihydro-3-methyl-7-oxo-7H-pyrido[1,2,3-d,e][1,4]benzoxazine-6-carboxylic acid], the MIC stood at 0.008 in assay [1]; 31 µg/mL (≈ 74.6 µM) in assay [2]; 0.008 in assay [3]; 0.063 in assay [4]; 0.016 in assay [5].
